# Tests used:
# [1] = test system: ALS iPS-MNs; assay: AIS (axon initial segment) length by ankyrin G immunostaining; assay type: cell-based, human; conditions: data not shown
# [2] = test system: brain slices derived from a mouse model of tauopathy; conditions: inhibition of PLDs; cited from earlier work
smiles,measurement,setting,value
"C=C(C)[C@H]1CN[C@H](C(=O)O)[C@H]1CC(=O)O [kainate, kainic acid]",effect on shortening of the AIS,[1],further exacerbated
"O=C(NCCN1CCC(n2c(=O)[nH]c3ccccc32)CC1)c1cc2cc(F)ccc2[nH]1 [FIPI, 5-fluoro-2-indolyl des-chlorohalopemide]",effect on insoluble tau aggregates,[2],increased insoluble tau aggregates

# From US20180028520A1, “METHODS AND PHARMACEUTICAL COMPOSITIONS FOR TREATMENT OF AMYOTROPHIC LATERAL SCLEROSIS” (priority 2014, published 2018)
